Assay results from ChEMBL document CHEMBL3217632, “Water soluble flavonol prodrugs that protect against ischaemia-reperfusion injury in rat hindlimb and sheep heart” (Medchemcomm, 2011).
pIC50: −log10 of the molar value. Calls of active or inactive are those of the source. No cut-off for these calls is given here.

Legend:
[1] = tested on: Thoracic aorta; test: Inhibition of superoxide anion production in Sprague-Dawley rat thoracic aorta with intact endothelium by lucigenin-based chemiluminescence analysis in presence of NADPH; format: functional
[2] = tested on: Thoracic aorta; test: Vasorelaxant activity in Sprague-Dawley rat thoracic aorta with intact endothelium assessed as inhibition of Ca2+-induced contraction after 20 mins; format: functional, tissue-based; conditions: for pIC50: Rattus norvegicus, Sprague-Dawley, Thoracic aorta, 20 min
[3] = Aqueous solubility of the compound; format: physicochemical; conditions: water (aqueous)
[4] = tested on: Thoracic aorta; test: Vasorelaxant activity in Sprague-Dawley rat thoracic aorta with intact endothelium assessed as Ca2+-induced contraction after 20 mins in absence of alkaline phosphatase; format: functional, tissue-based
[5] = tested on: Rattus norvegicus; test: Cardioprotective activity in iv dosed Sprague-Dawley rat hindquarters ischemia/reperfusion model assessed as decrease in circulating LDH level administered as bolus injection 5 mins prior to reperfusion by spectrophotometric analysis; format: functional, organism-based
[6] = tested on: Thoracic aorta; test: Inhibition of superoxide anion production in Sprague-Dawley rat thoracic aorta with intact endothelium by lucigenin-based chemiluminescence analysis in presence of NADPH and alkaline phosphatase; format: functional
[7] = organism: Rattus norvegicus; test: Cardiotoxicity in Sprague-Dawley rat hindquarters ischemia/reperfusion model assessed as change in mean arterial pressure measured following ischemia/reperfusion; format: toxicity, organism-based, Artery; conditions: in vivo
[8] = tested on: Thoracic aorta; test: Vasorelaxant activity in Sprague-Dawley rat thoracic aorta with intact endothelium assessed as inhibition of Ca2+-induced contraction after 20 mins in presence of alkaline phosphatase; format: functional, tissue-based; conditions: for pIC50: Rattus norvegicus, Sprague-Dawley, Thoracic aorta, 20 min
[9] = organism: Rattus norvegicus; test: Cardiotoxicity in Sprague-Dawley rat hindquarters ischemia/reperfusion model assessed as change in heart rate measured following ischemia/reperfusion by tachometer analysis; format: toxicity, organism-based; conditions: in vivo
[10] = tested on: Ovis aries; test: Cardioprotective activity in merino sheep ischemia/reperfusion injury model assessed as decrease in infarct size at 6.6 mg/kg, iv administered as bolus dose at 10 mins prior to reperfusion measured 3 hrs post-reperfusion by triphenyltetrazolium chloride staining; format: functional, organism-based; set-up: dose 6.6 mg/kg
[11] = tested on: Thoracic aorta; test: Vasorelaxant activity in Sprague-Dawley rat thoracic aorta with intact endothelium assessed as inhibition of Ca2+-induced contraction pretreated with butyrylcholinesterase for 1 hr; format: functional, tissue-based; conditions: for pIC50: Rattus norvegicus, Sprague-Dawley, Thoracic aorta
[12] = tested on: Thoracic aorta; test: Inhibition of superoxide anion production in Sprague-Dawley rat thoracic aorta with intact endothelium by lucigenin-based chemiluminescence analysis in presence of NADPH and absence of butyrylcholinesterase; format: functional, tissue-based
[13] = Solubility of the compound in aqueous sodium carbonate; format: physicochemical
[14] = tested on: Thoracic aorta; test: Inhibition of superoxide anion production in Sprague-Dawley rat thoracic aorta with intact endothelium pretreated with butyrylcholinesterase for 1 hr by lucigenin-based chemiluminescence analysis in presence of NADPH; format: functional
[15] = tested on: Thoracic aorta; test: Vasorelaxant activity in Sprague-Dawley rat thoracic aorta with intact endothelium assessed as Ca2+-induced contraction after 20 mins in absence of butyrylcholinesterase; format: functional, tissue-based
[16] = tested on: Ovis aries; test: Cardioprotective activity in merino sheep ischemia/reperfusion injury model assessed as infarct size at 5 mg/kg, iv administered as 20 mins infusion at 10 mins prior to reperfusion measured 3 hrs post-reperfusion by triphenyltetrazolium chloride staining (reference value: 80 +/-3%); format: functional
[17] = tested on: Ovis aries; test: Cardioprotective activity in iv dosed merino sheep ischemia/reperfusion injury model assessed as circulating LDH level measured 2 hrs post-reperfusion (reference value: 604 +/-58 U/L); format: functional
[18] = tested on: Plasma; test: Prodrug conversion in Sprague-Dawley rat plasma assessed as 3',4'-dihydroxyflavonol formation at 6.6 mg/kg, iv measured within 2 mins of drug administration by LC-MS/MS analysis; format: ADME, organism-based; set-up: dose 6.6 mg/kg, route intravenous; conditions: in vivo
[19] = tested on: Ovis aries; test: Cardioprotective activity in merino sheep ischemia/reperfusion injury model assessed as circulating LDH level 6.6 mg/kg, iv administered as bolus dose at 10 mins prior to reperfusion measured 3 hrs post-reperfusion by automated analyzer (reference value: 152 +/-50 U/L); format: functional

Structure (SMILES): O=c1c(O)c(-c2ccccc2)oc2ccccc12 [FLAVONOL]
- Rmax [1]: 20%
- Rmax [2]: 19%
- pIC50 [2]: 5.37
- solubility [3]: < 1 mg/mL

Structure (SMILES): O=c1c(OP(=O)([O-])[O-])c(-c2ccc(O)cc2)oc2ccccc12.[Na+].[Na+]
- Activity [4]: inactive
- Activity [5]: Active
- Rmax [6]: 27%
- Activity [7]: Non-toxic
- Rmax [8]: 63%
- pIC50 [8]: 5.40
- Activity [9]: Non-toxic
- solubility [3]: > 200 mg/mL
- Activity [10]: Active

Structure (SMILES): O=c1c(OP(=O)([O-])[O-])c(-c2ccccc2)oc2ccccc12.[Na+].[Na+]
- Activity [4]: inactive
- Rmax [6]: 36%
- Rmax [8]: 40%
- pIC50 [8]: 5.33
- solubility [3]: > 200 mg/mL

Structure (SMILES): O=C(O)CCCCC(=O)Oc1c(-c2ccc(O)cc2)oc2ccccc2c1=O
- Rmax [11]: 70%
- pIC50 [11]: 4.45
- inhibition [12]: inactive
- solubility [13]: > 50 mg/mL
- Rmax [14]: 30%
- Activity [15]: inactive

Structure (SMILES): O=c1c(O)c(-c2ccc(O)c(O)c2)oc2ccccc12
- Rmax [1]: 84%
- Rmax [2]: 89%
- pIC50 [2]: 5.02
- Activity [7]: Non-toxic
- Activity [16]: 50%
- Activity [17]: 405 U/L
- Activity [9]: Non-toxic

Structure (SMILES): O=c1c(O)c(-c2ccc(O)cc2)oc2ccccc12
- Rmax [1]: 62%
- Rmax [2]: 70%
- pIC50 [2]: 4.93
- solubility [3]: < 1 mg/mL

Structure (SMILES): O=C(O)CCCCC(=O)Oc1c(-c2ccc(O)c(O)c2)oc2ccccc2c1=O
- Activity [5]: Active
- Rmax [11]: 76%
- pIC50 [11]: 4.47
- inhibition [12]: inactive
- solubility [13]: > 50 mg/mL
- Rmax [14]: 70%
- Activity [15]: inactive
- Drug metabolism [18]: Active
- Activity [7]: Non-toxic
- Activity [19]: 70 U/L
- Activity [9]: Non-toxic
- Activity [10]: Active
